The source of these data is paper PMC5586252, “PP2A-B′ holoenzyme substrate recognition, regulation and role in cytokinesis” (Cell Discovery, 2017).

Assay [1] relates to PP2Ac–Cyk4 interaction in HeLa cells. In words: Co-immunoprecipitation of FLAG-Cyk4 with PP2Ac in synchronized cells. It counts as cell-based. The note with it: 200 nM for 30 min; HeLa cells with FLAG-Cyk4 and V5-CIP2A, synchronized with monastrol, 0–90 min after its removal. The method, then: Thirty-six hours after HeLa cells were transfected with FLAG-Cyk4 and V5-CIP2A expression vectors, the transfected cells were arrested at […] with 100 μM monastrol for 14 h, followed by incubation with 200 nM BI-2536 or solvent control for 30 min. Cells were collected at the indicated time points after removal of monastrol to allow cell cycle progression. The interaction between FLAG-Cyk4 and PP2Ac were determined by co-immunoprecipitation using antibody that specifically recognizes FLAG-tag. PP2Ac associated with FLAG-Cyk4 and from cell lysate input were determined by western blot using customer-made antibody against PP2Ac.

The next assay concerns the target T1, B′γ1 (Homo sapiens, UniProt Q13362).
T1 construct: Expression and purification of full-length PP2A Aα, Cα, B′γ1 and PR70 (B″ family); made in house
In words: Isothermal titration calorimetry of synthetic peptides. The note with it: for interaction with B′γ1 by ITC (in words): phospho-peptides with pS/pT at position 6 and negatively charged residues at positions 2, 7 and 8; for Kd: ITC, 1 mM peptide titrated to 20–50 μM B′γ1, 20 mM HEPES pH 7.5, 200 mM NaCl. Format: binding. How it is done: The binding affinities between B′γ1 and synthetic CIP2A and Cyk4 peptides (GenScript, Piscataway, NJ, USA) were determined by titrating 1 mM of peptides to 20–50 μM B′γ1 in 20 mM HEPES (pH 7.5), 200 mM NaCl using VP-ITC microcalorimeter (MicroCal, Malvern Instrument, Malvern, UK). The data were fitted with Origin 7.0 (MicroCal, Malvern Instrument, Malvern, UK) to calculate the equilibrium association constant.
On the technique in general: Isothermal titration calorimetry measures the heat released or taken up as one component is titrated into another.

“Also recorded” adds a separate entry of the source. Where no end group is shown, it is not given here.

T1 sequence (Q13362 whole entry, looked up): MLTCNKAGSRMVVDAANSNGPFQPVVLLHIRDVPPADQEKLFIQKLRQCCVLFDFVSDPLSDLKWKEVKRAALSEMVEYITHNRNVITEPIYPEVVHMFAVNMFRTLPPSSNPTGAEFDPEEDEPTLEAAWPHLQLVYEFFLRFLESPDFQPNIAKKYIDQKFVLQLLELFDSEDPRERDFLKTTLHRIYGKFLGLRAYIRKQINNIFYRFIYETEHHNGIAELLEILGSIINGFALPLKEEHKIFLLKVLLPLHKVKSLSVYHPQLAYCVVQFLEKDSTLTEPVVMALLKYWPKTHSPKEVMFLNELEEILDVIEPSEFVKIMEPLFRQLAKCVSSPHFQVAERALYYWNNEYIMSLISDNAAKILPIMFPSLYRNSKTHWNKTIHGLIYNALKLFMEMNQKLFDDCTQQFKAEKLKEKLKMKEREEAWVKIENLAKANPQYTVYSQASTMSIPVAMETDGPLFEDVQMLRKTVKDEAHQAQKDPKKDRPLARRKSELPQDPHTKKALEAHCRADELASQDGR

Take `CC[C@@H]1C(=O)N(C)c2cnc(Nc3ccc(C(=O)NC4CCN(C)CC4)cc3OC)nc2N1C1CCCC1` [BI-2536]: in assay [1], the “effect on interaction between PP2Ac and Cyk4 (co-IP)” value is “blocked and delayed the interaction between PP2Ac and Cyk4”.

With LEPIRpSEE, at B′γ1, the “interaction with B′γ1 by ITC (in words)” value is given as “no binding; also recorded: no interaction could be detected”.

For the molecule LEPIRpTEE, on B′γ1, the “interaction with B′γ1 by ITC (in words)” value was “no binding; also recorded: no interaction could be detected”.

As to LEPVRpSEE, the “interaction with B′γ1 by ITC (in words)” value at B′γ1 is given as “no binding; also recorded: no interaction could be detected”.

A word on the Kd: it is the equilibrium constant for the complex coming apart. The low end stands for higher affinity, the high end for lower affinity. As for NKRLSTIDEEGS [Cyk4 peptide S149E], at B′γ1, binding was put at a Kd of 1.59 µM.

NRKLESVAEEHE [CIP2A peptide]: the Kd at B′γ1 was found to be 7.2 µM.
